Data on 19 substances can be found in patent US10150760B2, “Compounds for use in preparing heterocyclic triazole agonists of the APJ receptor” (AMGEN INC., priority 2016, dated 2018).

Bounds are passed on as bounds.

Chain of human APJ receptor (P35414 whole entry): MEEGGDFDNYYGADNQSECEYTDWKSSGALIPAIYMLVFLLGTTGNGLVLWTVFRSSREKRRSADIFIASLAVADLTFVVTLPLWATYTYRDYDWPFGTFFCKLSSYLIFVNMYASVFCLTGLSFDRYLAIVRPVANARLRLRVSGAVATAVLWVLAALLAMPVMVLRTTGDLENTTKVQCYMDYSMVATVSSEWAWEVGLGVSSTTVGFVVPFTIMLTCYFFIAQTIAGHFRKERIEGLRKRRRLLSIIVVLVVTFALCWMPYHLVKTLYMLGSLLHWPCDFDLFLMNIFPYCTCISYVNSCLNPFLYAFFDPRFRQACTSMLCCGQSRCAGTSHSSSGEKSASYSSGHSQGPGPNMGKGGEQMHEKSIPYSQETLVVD

In the assay the target is human APJ receptor (Homo sapiens (Human), UniProt P35414). In words: [35S]GTPγS binding assay on membranes from CHO cells stably expressing human APJ receptor. It is filed as biochemical. The settings on record: read-out: Activity hAPJ SPA EC50 IP. In short, it runs like this:
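Agonist-driven [35S]GTPγS (0.2 nM) binding was measured over 90 min at room temperature on human APJ-expressing CHO membranes with bead capture, in buffer containing 3 μM GDP, 200 mM NaCl and 5 mM MgCl2 (pH 7.5). Excess unlabelled GTPγS (100 μM) gave nonspecific signal; EC50 from non-linear fits.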
For orientation: Binding of GTPγS marks nucleotide exchange on a G protein.
Take “(2S,3R)-N-(4-(1,3-dimethoxy-2-propanyl)-5-((2R,5R)-5-methyltetrahydro-2-furanyl)-4H-1,2,4-triazol-3-yl)-3-(5-methoxy-2-pyrazinyl)-2-butanesulfonamide or (2S,3R)-N-(4-(1,3-dimethoxy-2-propanyl)-5-((2S,5S)-5-methyltetrahydro-2-furanyl)-4H-1,2,4-triazol-3-yl)-3-(5-methoxy-2-pyrazinyl)-2-butanesulfonamide [Example 377.0]”: the EC50 (commonly the concentration giving half of the maximal effect) worked out at 24 nM.

For the substance “(2S,3R)-N-(4-(1,3-dimethoxy-2-propanyl)-5-((2R,5R)-5-methyltetrahydro-2-furanyl)-4H-1,2,4-triazol-3-yl)-3-(5-methoxy-2-pyrimidinyl)-2-butanesulfonamide or (2S,3R)-N-(4-(1,3-dimethoxy-2-propanyl)-5-((2S,5S)-5-methyltetrahydro-2-furanyl)-4H-1,2,4-triazol-3-yl)-3-(5-methoxy-2-pyrimidinyl)-2-butanesulfonamide [Example 370.0]”, the EC50 amounted to 620 nM.

For the substance “(2S,3R)-N-(4-(1,3-dimethoxy-2-propanyl)-5-((2R,5R)-5-methyltetrahydro-2-furanyl)-4H-1,2,4-triazol-3-yl)-3-(5-methoxy-2-pyrimidinyl)-2-butanesulfonamide or (2S,3R)-N-(4-(1,3-dimethoxy-2-propanyl)-5-((2S,5S)-5-methyltetrahydro-2-furanyl)-4H-1,2,4-triazol-3-yl)-3-(5-methoxy-2-pyrimidinyl)-2-butanesulfonamide [Example 371.0]”, the EC50 came out at 15 nM.

For “(2S,3R)-N-(4-(2,6-bis((trideutero)methyloxy)phenyl)-5-((3R)-tetrahydro-3-furanyl)-4H-1,2,4-triazol-3-yl)-3-(5-chloro-2-pyrimidinyl)-2-butanesulfonamide or (2S,3R)-N-(4-(2,6-bis((trideutero)methyloxy)phenyl)-5-((3S)-tetrahydro-3-furanyl)-4H-1,2,4-triazol-3-yl)-3-(5-chloro-2-pyrimidinyl)-2-butanesulfonamide [Example 391.0]”, the EC50 turned out to be 15 nM.

As to “(2S,3R)-N-(4-(2,6-bis((tridutero)methyloxy)phenyl)-5-((3R)-tetrahydro-3-furanyl)-4H-1,2,4-triazol-3-yl)-3-(5-chloro-2-pyrimidinyl)-2-butanesulfonamide or (2S,3R)-N-(4-(2,6-bis((trideutero)methyloxy)phenyl)-5-((3S)-tetrahydro-3-furanyl)-4H-1,2,4-triazol-3-yl)-3-(5-chloro-2-pyrimidinyl)-2-butanesulfonamide [Example 392.0]”, the EC50 is 25 nM.

As for “(2S,3R)-N-(4-(2,6-difluorophenyl)-5-((3R)-tetrahydro-3-furanyl)-4H-1,2,4-triazol-3-yl)-3-(5-methyl-2-pyrimidinyl)-2-butanesulfonamide or (2S,3R)-N-(4-(2,6-difluorophenyl)-5-((3S)-tetrahydro-3-furanyl)-4H-1,2,4-triazol-3-yl)-3-(5-methyl-2-pyrimidinyl)-2-butanesulfonamide [Example 20.0]”, the EC50 was 160 nM.

Consider “(2S,3R)-N-(4-(2,6-difluorophenyl)-5-((3R)-tetrahydro-3-furanyl)-4H-1,2,4-triazol-3-yl)-3-(5-methyl-2-pyrimidinyl)-2-butanesulfonamide or (2S,3R)-N-(4-(2,6-difluorophenyl)-5-((3S)-tetrahydro-3-furanyl)-4H-1,2,4-triazol-3-yl)-3-(5-methyl-2-pyrimidinyl)-2-butanesulfonamide [Example 21.0]”, for which the EC50 is 110 nM.

As for “(2S,3R)-N-(4-(2,6-difluorophenyl)-5-((3S)-tetrahydro-2H-pyran-3-yl)-4H-1,2,4-triazol-3-yl)-3-(5-methyl-2-pyrimidinyl)-2-butanesulfonamide or (2S,3R)-N-(4-(2,6-difluorophenyl)-5-((3R)-tetrahydro-2H-pyran-3-yl)-4H-1,2,4-triazol-3-yl)-3-(5-methyl-2-pyrimidinyl)-2-butanesulfonamide [Example 22.0]”, the EC50 worked out at 260 nM.

Take “(2S,3R)-N-(4-(2,6-difluorophenyl)-5-((3S)-tetrahydro-2H-pyran-3-yl)-4H-1,2,4-triazol-3-yl)-3-(5-methyl-2-pyrimidinyl)-2-butanesulfonamide or (2S,3R)-N-(4-(2,6-difluorophenyl)-5-((3R)-tetrahydro-2H-pyran-3-yl)-4H-1,2,4-triazol-3-yl)-3-(5-methyl-2-pyrimidinyl)-2-butanesulfonamide [Example 23.0]”: the EC50 was found to be 110 nM.

As to “(2S,3R)-N-(4-(2,6-dimethoxyphenyl)-5-((R)-1,1-dioxidotetahydrothiophen-3-yl)-4H-1,2,4-triazol-3-yl)-3-(5-methylpyrimidin-2-yl)butane-2-sulfonamide or (2S,3R)-N-(4-(2,6-dimethoxyphenyl)-5-((S)-1,1-dioxidotetrahydrothiophen-3-yl)-4H-1,2,4-triazol-3-yl)-3-(5-methylpyrimidin-2-yl)butane-2-sulfonamide [Example 184.0]”, the EC50 came to 1380 nM.

Turning to “(2S,3R)-N-(4-(2,6-dimethoxyphenyl)-5-((R)-1,1-dioxidotetrahydrothiophen-3-yl)-4H-1,2,4-triazol-3-yl)-3-(5-methylpyrimidin-2-yl)butane-2-sulfonamide or (2S,3R)-N-(4-(2,6-dimethoxyphenyl)-5-((S)-1,1-dioxidotetrahydrothiophen-3-yl)-4H-1,2,4-triazol-3-yl)-3-(5-methylpyrimidin-2-yl)butane-2-sulfonamide [Example 183.0]”, the EC50 amounted to 1060 nM.

On to “(2S,3R)-N-(4-(2,6-dimethoxyphenyl)-5-((R)-1,4-dioxan-2-yl)-4H-1,2,4-triazol-3-yl)-3-(5-methoxypyrazin-2-yl)butane-2-sulfonamide or (2S,3R)-N-(4-(2,6-dimethoxyphenyl)-5-((S)-1,4-dioxan-2-yl)-4H-1,2,4-triazol-3-yl)-3-(5-methoxypyrazin-2-yl)butane-2-sulfonamide [Example 207.0]”, for which the concentration giving a half-maximal response (EC50) is 4.8 nM.

With “(2S,3R)-N-(4-(2,6-dimethoxyphenyl)-5-((R)-1,4-dioxan-2-yl)-4H-1,2,4-triazol-3-yl)-3-(5-methoxypyrazin-2-yl)butane-2-sulfonamide or (2S,3R)-N-(4-(2,6-dimethoxyphenyl)-5-((S)-1,4-dioxan-2-yl)-4H-1,2,4-triazol-3-yl)-3-(5-methoxypyrazin-2-yl)butane-2-sulfonamide [Example 208.0]”, the concentration for a half-maximal effect (EC50) was determined as 20 nM.

With “(2S,3R)-N-(4-(2,6-dimethoxyphenyl)-5-((R)-1,4-dioxan-2-yl)-4H-1,2,4-triazol-3-yl)-3-(5-methylpyrimidin-2-yl)butane-2-sulfonamide or (2S,3R)-N-(4-(2,6-dimethoxyphenyl)-5-((S)-1,4-dioxan-2-yl)-4H-1,2,4-triazol-3-yl)-3-(5-methylpyrimidin-2-yl)butane-2-sulfonamide [Example 205.0]”, the EC50 worked out at 19 nM.

As for “(2S,3R)-N-(4-(2,6-dimethoxyphenyl)-5-((S)-tetrahydrothiophen-2-yl)-4H-1,2,4-triazol-3-yl)-3-(5-methylpyrimidin-2-yl)butane-2-sulfonamide or (2S,3R)-N-(4-(2,6-dimethoxyphenyl)-5-((R)-tetrahydrothiophen-2-yl)-4H-1,2,4-triazol-3-yl)-3-(5-methylpyrimidin-2-yl)butane-2-sulfonamide [Example 223.0]”, the EC50 was 12 nM.

As to “(2S,3R)-N-(4-(2,6-dimethoxyphenyl)-5-((S)-tetrahydrothiophen-2-yl)-4H-1,2,4-triazol-3-yl)-3-(5-methylpyrimidin-2-yl)butane-2-sulfonamide or (2S,3R)-N-(4-(2,6-dimethoxyphenyl)-5-((R)-tetrahydrothiophen-2-yl)-4H-1,2,4-triazol-3-yl)-3-(5-methylpyrimidin-2-yl)butane-2-sulfonamide [Example 224.0]”, the EC50 was 1.5 nM.

Consider “(2S,3R)-N-(4-((1r,2R,6S)-2,6-dimethoxycyclohexyl)-5-((3S)-tetrahydro-3-furanyl)-4H-1,2,4-triazol-3-yl)-3-(5-methyl-2-pyrimidinyl)-2-butanesulfonamide or (2S,3R)-N-(4-((1r,2R,6S)-2,6-dimethoxycyclohexyl)-5-((3R)-tetrahydro-3-furanyl)-4H-1,2,4-triazol-3-yl)-3-(5-methyl-2-pyrimidinyl)-2-butanesulfonamide [Example 4.0]”, for which the EC50 was found to be 890 nM.

Consider “(2S,3R)-N-(4-((1r,2R,6S)-2,6-dimethoxycyclohexyl)-5-((3S)-tetrahydro-3-furanyl)-4H-1,2,4-triazol-3-yl)-3-(5-methyl-2-pyrimidinyl)-2-butanesulfonamide or (2S,3R)-N-(4-((1r,2R,6S)-2,6-dimethoxycyclohexyl)-5-((3R)-tetrahydro-3-furanyl)-4H-1,2,4-triazol-3-yl)-3-(5-methyl-2-pyrimidinyl)-2-butanesulfonamide [Example 5.0]”, for which the EC50 was more than 4200 nM.

As for “((2S,3R)-N-(4-(2,6-dimethoxyphenyl)-5-((R)-1,4-dioxan-2-yl)-4H-1,2,4-triazol-3-yl)-3-(5-methylpyrimidin-2-yl)butane-2-sulfonamide or (2S,3R)-N-(4-(2,6-dimethoxyphenyl)-5-((S)-1,4-dioxan-2-yl)-4H-1,2,4-triazol-3-yl)-3-(5-methylpyrimidin-2-yl)butane-2-sulfonamide [Example 206.0]”, the half-maximal effective concentration (EC50) was determined as 35 nM.
